Data reported in PubChem BioAssay (NCI).
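Abbreviation: GI50, concentration required for 50% inhibition of growth. TGI is the concentration that stops growth completely.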

How the values were obtained:
Test in all cases: growth of human tumour cells (NCI), 384-well format
[1] = test system: SK-OV-3 ovarian
[2] = test system: MDA-MB-231 breast
[3] = test system: HCT-15 colon
[4] = test system: OVCAR-4 ovarian
[5] = test system: LOX IMVI melanoma
[6] = test system: A549 NSCLC
[7] = test system: NCI-H322M lung
[8] = test system: MCF7 breast
[9] = test system: EKVX NSCLC
[10] = test system: HCT-116 colon
[11] = test system: SF-295 CNS
[12] = test system: SF-539 CNS
[13] = test system: NCI-H226 lung
[14] = test system: OVCAR-8 ovarian
[15] = test system: BT-549 breast
[16] = test system: A498 renal
[17] = test system: TK-10 renal
[18] = test system: SW-620 colon
[19] = test system: UACC-62 melanoma
[20] = test system: SNB-19 CNS
[21] = test system: SK-MEL-28 melanoma
[22] = test system: NCI/ADR-RES ovarian
[23] = test system: U251 glioblastoma
[24] = test system: UO-31 renal
[25] = test system: NCI-H23 lung
[26] = test system: T-47D breast
[27] = test system: 786-0 renal
[28] = test system: SNB-75 CNS
[29] = test system: HOP-62 NSCLC
[30] = test system: KM12 colon
[31] = test system: CAKI-1 renal
[32] = test system: ACHN renal
[33] = test system: SF-268 CNS
[34] = test system: HOP-92 NSCLC
[35] = test system: IGROV1 ovarian
[36] = test system: SK-MEL-5 melanoma
[37] = test system: MALME-3M melanoma
[38] = test system: PC-3 prostate
[39] = test system: HCC-2998 colon
[40] = test system: SN12C renal
[41] = test system: RXF 393 renal
[42] = test system: MDA-MB-468 breast
[43] = test system: NCI-H522 lung
[44] = test system: COLO 205 colon
[45] = test system: SR leukemia
[46] = test system: CCRF-CEM leukemia
[47] = test system: DU-145 prostate
[48] = test system: OVCAR-5 ovarian
[49] = test system: M14 melanoma
[50] = test system: NCI-H460 NSCLC
[51] = test system: HS 578T breast
[52] = test system: OVCAR-3 ovarian
[53] = test system: MDA-MB-435 melanoma
[54] = test system: UACC-257 melanoma
[55] = test system: HT29 colon
[56] = test system: K-562 leukemia

Structure (SMILES): CN1CC[C@H](N(C)C(=O)N2CC(c3cc(F)ccc3F)=C[C@@]2(CO)c2ccccc2)[C@H](F)C1
- TGI [1]: 26.8 µM
- TGI [2]: > 100 µM
- TGI [3]: 28 µM
- GI50 [4]: 21.6 µM
- TGI [4]: > 100 µM
- TGI [5]: 20 µM
- TGI [6]: > 100 µM
- TGI [7]: 55.6 µM
- TGI [8]: 35.4 µM
- TGI [9]: 28.2 µM
- TGI [10]: 14.6 µM
- TGI [11]: 1.28 µM
- TGI [12]: 11.6 µM
- TGI [13]: 8.16 µM
- TGI [14]: 11.4 µM
- TGI [15]: 13.6 µM
- TGI [16]: 13 µM
- GI50 [17]: 4.89 µM
- TGI [17]: 35.3 µM
- TGI [18]: > 100 µM
- TGI [19]: 16.5 µM
- TGI [20]: 27.5 µM
- GI50 [21]: 0.646 µM
- TGI [21]: 19.5 µM
- TGI [22]: 0.0135 µM
- TGI [23]: 14.5 µM
- GI50 [24]: 3.34 µM
- TGI [24]: 95.1 µM
- TGI [25]: 0.0371 µM
- TGI [26]: 43.1 µM
- TGI [27]: 12.4 µM
- TGI [28]: 27.4 µM
- TGI [29]: 25.9 µM
- TGI [30]: 10.9 µM
- TGI [31]: > 100 µM
- GI50 [32]: 9.3 µM
- TGI [32]: > 100 µM
- TGI [33]: 11.7 µM
- GI50 [34]: 0.198 µM
- TGI [34]: 32.6 µM
- GI50 [35]: 6.07 µM
- TGI [35]: > 100 µM
- TGI [36]: 1.07 µM
- TGI [37]: 14.5 µM
- TGI [38]: 27.1 µM
- TGI [39]: 13.3 µM

Structure (SMILES): N#CCC1CCN(c2nc(Nc3ccc(N4CCC(O)CC4)cc3)c3c(=O)[nH]ncc3n2)CC1
- GI50 [1]: 0.235 µM
- TGI [1]: 4.81 µM
- GI50 [2]: 5.42 µM
- TGI [2]: > 100 µM
- GI50 [3]: 0.453 µM
- TGI [3]: > 100 µM
- GI50 [4]: > 100 µM
- TGI [4]: > 100 µM
- GI50 [40]: 0.243 µM
- TGI [40]: > 100 µM
- GI50 [5]: 0.49 µM
- TGI [5]: 2.6 µM
- GI50 [6]: 0.365 µM
- TGI [6]: > 100 µM
- GI50 [41]: 0.893 µM
- TGI [41]: 3.27 µM
- GI50 [42]: 1.01 µM
- TGI [42]: 3.47 µM
- GI50 [43]: 0.196 µM
- TGI [43]: 0.929 µM
- GI50 [8]: 0.254 µM
- TGI [8]: > 100 µM
- GI50 [44]: 0.24 µM
- TGI [44]: 0.921 µM
- GI50 [9]: 0.277 µM
- TGI [9]: > 100 µM
- GI50 [45]: 0.18 µM
- TGI [45]: 0.327 µM
- GI50 [46]: 0.332 µM
- TGI [46]: > 100 µM
- GI50 [10]: 0.336 µM
- TGI [10]: > 100 µM
- GI50 [12]: 0.793 µM
- TGI [12]: 2.39 µM
- GI50 [13]: 0.281 µM
- TGI [13]: > 100 µM
- GI50 [14]: 5.18 µM
- TGI [14]: > 100 µM
- GI50 [15]: 0.538 µM
- TGI [15]: 2.25 µM
- GI50 [16]: 0.804 µM
- TGI [16]: > 100 µM
- GI50 [17]: 0.425 µM
- TGI [17]: 4.85 µM
- GI50 [18]: 0.441 µM
- TGI [18]: 2.21 µM
- GI50 [20]: 2.75 µM
- TGI [20]: > 100 µM
- GI50 [21]: 0.81 µM
- TGI [21]: > 100 µM
- GI50 [47]: 0.704 µM
- TGI [47]: > 100 µM
- GI50 [25]: 0.293 µM
- TGI [25]: > 100 µM
- GI50 [26]: 4.39 µM
- TGI [26]: > 100 µM
- GI50 [48]: 0.602 µM
- TGI [48]: > 100 µM
- GI50 [49]: 0.346 µM
- TGI [49]: > 100 µM
- GI50 [50]: 0.319 µM
- TGI [50]: > 100 µM
- GI50 [51]: 0.673 µM
- TGI [51]: 3.54 µM
- GI50 [52]: 1.13 µM
- TGI [52]: > 100 µM
- GI50 [28]: 1.24 µM
- TGI [28]: 3.17 µM
- GI50 [53]: 0.311 µM
- TGI [53]: > 100 µM
- GI50 [29]: 3.71 µM
- TGI [29]: > 100 µM
- GI50 [31]: 0.349 µM
- TGI [31]: > 100 µM
- GI50 [32]: 0.547 µM
- TGI [32]: > 100 µM
- GI50 [33]: 1.43 µM
- TGI [33]: 9.43 µM
- GI50 [34]: 0.329 µM
- TGI [34]: > 100 µM
- GI50 [54]: > 100 µM
- TGI [54]: > 100 µM
- GI50 [55]: 0.427 µM
- TGI [55]: > 100 µM
- GI50 [56]: 0.482 µM
- TGI [56]: > 100 µM
- GI50 [35]: 0.239 µM
- TGI [35]: 3.48 µM
- GI50 [36]: 0.338 µM
- TGI [36]: > 100 µM
- GI50 [37]: 0.472 µM
- TGI [37]: > 100 µM
- GI50 [38]: > 100 µM
- TGI [38]: > 100 µM
- GI50 [39]: 0.378 µM
- TGI [39]: 2.91 µM
